*1 amine or outer side, *2 acyl side, *3 side chain or, on linkers, in order; H or OH if unused. Where a SMILES comes first, the peptide text is derived from it. Bridges are numbered along the chain shown (N, C = ends). [ ]: non-standard residue; d: D form. The star is where a group is joined. X5 = NC(=O)[C@H](CCCCNC(=O)CN1CCN(CC(=O)O)CCN(CC(=O)O)CCN(CC(=O)O)CC1)NC(=O)CCC(=O)NCCCOCCOCCOCCCN*; X11 = O=C(CN1CCN2CCN3CCN(CC1)CC(=O)[O][In]([O]C(=O)C2)[O]C(=O)C3)NCCCOCCOCCOCCCN*; DOTA(Ga) = O=C1CN2CCN3CCN(CC(=O)*)CCN(CC2)CC(=O)[O][Ga]([O]1)[O]C(=O)C3; NH(1-deoxy-D-glucityl) = OC[C@@H](O)[C@@H](O)[C@H](O)[C@@H](O)CN*; DOTA = O=C(O)CN1CCN(CC(=O)O)CCN(CC(=O)*)CCN(CC(=O)O)CC1; Trp(5-Cl) = N[C@@H](Cc1c[nH]c2ccc(Cl)cc12)C(=O)O; Pyridine(2,6-diCH2) = c1cc(C[*:1])nc(C[*:2])c1; Pro(4R-NH2) = N[C@H]1CN[C@H](C(=O)O)C1; mXylylene = c1cc(C[*:1])cc(C[*:2])c1; Glutaryl = O=C(CCCC(=O)[*:2])[*:1]; PEG6 = NCCOCCOCCOCCOCCOCCOCCC(=O)O; X7 = c1cc(CSCCN[*:2])cc(C[*:1])c1; Hyp = O=C(O)[C@@H]1C[C@@H](O)CN1; X1 = O=C(CN1CCC(N[*:1])CC1)[*:2]; Suc = O=C(CCC(=O)[*:2])[*:1]; Api = NC1(C(=O)O)CCNCC1; Thp = NC1(C(=O)O)CCOCC1; Aib = CC(C)(N)C(=O)O
These compounds were tested against T1, GIPR (CHO-K1-hGIPR cells) (Homo sapiens, UniProt P48546) (assay: FACS binding assay). Conditions: competition with 20 nM GIP-057, 4° C., 1 hour, read-out: pIC50 Category (converted).
T1 construct: host or cells: CHO-K1
T1 sequence (P48546 22-466): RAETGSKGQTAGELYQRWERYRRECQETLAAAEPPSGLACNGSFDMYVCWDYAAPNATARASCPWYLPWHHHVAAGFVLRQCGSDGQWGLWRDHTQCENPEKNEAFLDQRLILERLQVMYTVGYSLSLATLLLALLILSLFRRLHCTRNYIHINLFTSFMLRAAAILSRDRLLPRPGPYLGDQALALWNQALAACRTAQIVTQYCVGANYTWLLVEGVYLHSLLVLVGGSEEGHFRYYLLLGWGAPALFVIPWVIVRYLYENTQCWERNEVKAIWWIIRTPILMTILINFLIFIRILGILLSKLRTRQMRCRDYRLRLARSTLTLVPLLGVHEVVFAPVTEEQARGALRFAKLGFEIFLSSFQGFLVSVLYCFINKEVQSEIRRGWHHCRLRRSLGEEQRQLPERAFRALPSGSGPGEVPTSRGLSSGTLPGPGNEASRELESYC
How it was run: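 CHO-K1 cells stably expressing human GIPR were detached with Accutase, suspended at 500.000 cells per mL in PBS with 1% FCS, and washed ice-cold. Bound peptide was detected with 1 μg/mL APC-streptavidin for 30 min on ice.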

Row | Compound | IC50 [nM]
1 | CC[C@H](C)[C@@H]1NC(=O)[C@H](CCC(=O)O)NC(=O)C2(CCOCC2)NC(=O)[C@@H](NC(=O)[C@@H](CC(C)C)NC(=O)[C@H](CCC(=O)O)NC(=O)[C@@H]2C[C@@H](O)CN2C(=O)[C@H](Cc2c[nH]c3ccc(Cl)cc23)NC(=O)[C@H](Cc2c[nH]c3ccccc23)NC(=O)[C@H](CC(=O)O)NC(C)=O)CSCc2cccc(n2)CSC[C@@H](C(N)=O)NC1=O [GIP-231, Ac-Asp-Trp-5Clw-Hyp-Glu-leu-[Cys(2Lut)-Thp-Glu-Ile-Cys]-NH2] (Ac-DW[Trp(5-Cl)][Hyp]E[dL]C[Thp]EIC-NH2; linker 7-11 via Pyridine(2,6-diCH2)) | < 10
2 | CC[C@H](C)[C@@H]1NC(=O)[C@H]([C@@H](C)CC)NC(=O)C2(CCOCC2)NC(=O)[C@@H](NC(=O)[C@@H](CC(C)C)NC(=O)[C@H](CCC(=O)O)NC(=O)[C@@H]2C[C@@H](O)CN2C(=O)[C@H](Cc2c[nH]c3ccc(Cl)cc23)NC(=O)[C@H](Cc2c[nH]c3ccccc23)NC(=O)[C@H](CC(=O)O)NC(C)=O)CSCc2cccc(n2)CSC[C@@H](C(N)=O)NC1=O [GIP-229, Ac-Asp-Trp-5Clw-Hyp-Glu-leu-[Cys(2Lut)-Thp-Ile-Ile-Cys]-NH2] (Ac-DW[Trp(5-Cl)][Hyp]E[dL]C[Thp]IIC-NH2; linker 7-11 via Pyridine(2,6-diCH2)) | < 10
3 | CC[C@H](C)[C@@H]1NC(=O)[C@H](CC(C)C)NC(=O)C2(CCOCC2)NC(=O)[C@@H](NC(=O)[C@@H](CC(C)C)NC(=O)[C@H](CCC(=O)O)NC(=O)[C@@H]2C[C@@H](O)CN2C(=O)[C@H](Cc2c[nH]c3ccc(Cl)cc23)NC(=O)[C@H](Cc2c[nH]c3ccccc23)NC(=O)[C@H](CCC(N)=O)NC(C)=O)CSCc2cccc(n2)CSC[C@@H](C(N)=O)NC1=O [GIP-204, Ac-Gln-Trp-5Clw-Hyp-Glu-leu-[Cys(2Lut)-Thp-Leu-Ile-Cys]-NH2] (Ac-QW[Trp(5-Cl)][Hyp]E[dL]C[Thp]LIC-NH2; linker 7-11 via Pyridine(2,6-diCH2)) | < 10
4 | CC[C@H](C)[C@@H]1NC(=O)[C@H](CC(C)C)NC(=O)C2(CCOCC2)NC(=O)[C@@H](NC(=O)[C@@H](CC(C)C)NC(=O)[C@H](CCC(=O)O)NC(=O)[C@@H]2C[C@@H](N)CN2C(=O)[C@H](Cc2c[nH]c3ccc(Cl)cc23)NC(=O)[C@H](Cc2c[nH]c3ccccc23)NC(=O)[C@H](CC(=O)O)NC(=O)CCOCCOCCOCCOCCOCCOCCNC(=O)[C@@H](CCC(=O)NC[C@H](O)[C@@H](O)[C@H](O)[C@H](O)CO)NC(=O)CN2CCN(CC(=O)O)CCN(CC(=O)O)CCN(CC(=O)O)CC2)CSCc2cccc(n2)CSC[C@@H](C(=O)NC2CCN(CC(=O)N[C@H](CCC(=O)NC[C@H](O)[C@@H](O)[C@H](O)[C@H](O)CO)C(N)=O)CC2)NC1=O [GIP-019, DOTA-glu(AGLU)-PEG6-Asp-Trp-5Clw-Tap-Glu-leu-[Cys(2Lut)-Thp-Leu-Ile-Cys]-APAc-glu(AGLU)-NH2] ({DOTA}-[dE](NH(1-deoxy-D-glucityl))[PEG6]DW[Trp(5-Cl)][Pro(4R-NH2)]E[dL]C[Thp]LIC[X1][dE](NH(1-deoxy-D-glucityl))-NH2; linker 9-13 via Pyridine(2,6-diCH2)) | < 10
5 | CC[C@H](C)[C@@H]1NC(=O)[C@H](CC(C)C)NC(=O)C(C)(C)NC(=O)[C@@H](NC(=O)[C@H](CC(C)C)NC(=O)[C@H](CCC(=O)O)NC(=O)[C@@H]2CCCN2C(=O)[C@H](Cc2c[nH]c3ccc(Cl)cc23)NC(=O)[C@H](Cc2c[nH]c3ccccc23)NC(=O)[C@H](CC(=O)O)NC(C)=O)CSCc2cccc(c2)CSC[C@@H](C(=O)NCCCOCCOCCOCCCNC(=O)CCC(=O)N[C@@H](CCCCNC(=O)CN2CCN(CC(=O)O)CCN(CC(=O)O)CCN(CC(=O)O)CC2)C(N)=O)NC1=O [GIP-076, Ac-Asp-Trp-5Clw-Pro-Glu-Leu-[Cys(3MeBn)-Aib-Leu-Ile-Cys]-Ttds-Lys(DOTA)-NH2] (Ac-DW[Trp(5-Cl)]PELC[Aib]LIC-X5; linker 7-11 via mXylylene) | < 10
6 | CC[C@H](C)[C@@H]1NC(=O)[C@H](CC(C)C)NC(=O)C2(CCN(C(=O)CN3CCN4CCN5CCN(CC3)CC(=O)[O][Ga]([O]C(=O)C5)[O]C(=O)C4)CC2)NC(=O)[C@@H](NC(=O)[C@@H](CC(C)C)NC(=O)[C@H](CCC(=O)O)NC(=O)[C@@H]2C[C@@H](O)CN2C(=O)[C@H](Cc2c[nH]c3ccc(Cl)cc23)NC(=O)[C@H](Cc2c[nH]c3ccccc23)NC(=O)[C@H](CC(=O)O)NC(=O)CCCC(=O)NC[C@H](O)[C@@H](O)[C@H](O)[C@H](O)CO)CSCc2cccc(n2)CSC[C@@H](C(=O)NC2CCN(CC(=O)N[C@H](CCC(=O)NC[C@H](O)[C@@H](O)[C@H](O)[C@H](O)CO)C(N)=O)CC2)NC1=O [GIP-070, AGLU-Glutar-Asp-Trp-5Clw-Hyp-Glu-leu-[Cys(2Lut)-Apc(GaDOTA)-Leu-Ile-Cys]-APAc-glu(AGLU)-NH2] ({NH(1-deoxy-D-glucityl)-Glutaryl}-DW[Trp(5-Cl)][Hyp]E[dL]C[Api](DOTA(Ga))LIC[X1][dE](NH(1-deoxy-D-glucityl))-NH2; linker 7-11 via Pyridine(2,6-diCH2)) | < 10
7 | CC[C@H](C)[C@@H]1NC(=O)[C@H](CC(C)C)NC(=O)C2(CCOCC2)NC(=O)[C@@H](NC(=O)[C@@H](CC(C)C)NC(=O)[C@H](CCC(=O)O)NC(=O)[C@@H]2CCCN2C(=O)[C@H](Cc2c[nH]c3ccc(Cl)cc23)NC(=O)[C@H](Cc2c[nH]c3ccccc23)NC(=O)[C@H](CC(=O)O)NC(=O)CCC(=O)NCCCOCCOCCOCCCNC(=O)CN2CCN3CCN4CCN(CC2)CC(=O)[O][In]([O]C(=O)C3)[O]C(=O)C4)CSCc2cccc(c2)CSCCNC1=O [GIP-150, InDOTA-Ttds-Asp-Trp-5Clw-Pro-Glu-leu-[Cys(3MeBn)-Thp-Leu-Ile-AET]] ({X11-Suc}-DW[Trp(5-Cl)]PE[dL]C[Thp]LI; linker 7-C via X7) | < 10
